In article PMC7374097, “UGT2B17 modifies drug response in chronic lymphocytic leukaemia” (British Journal of Cancer, 2020):
Read-outs that look alike come from different tables or passages of the source.

B1: UGT2B17 (Homo sapiens) (protein)
chain: GKVLVWPTEYSHWINMKTILEELVQRGHEVIVLTSSASILVNASKSSAIKLEVYPTSLTKNDLEDFFMKMFDRWTYSISKNTFWSYFSQLQELCWEYSDYNIKLCEDAVLNKKLMRKLQESKFDVLLADAVNPCGELLAELLNIPFLYSLRFSVGYTVEKNGGGFLFPPSYVPVVMSELSDQMIFMERIKNMIYMLYFDFWFQAYDLKKWDQFYSEVLGRPTTLFETMGKAEMWLIRTYWDFEFPRPFLPNVDFVGGLHCKPAKPLPKEMEEFVQSSGENGIVVFSLGSMISNMSEESANMIASALAQIPQKVLWRFDGKKPNTLGSNTRLYKWLPQNDLLGHPKTKAFITHGGTNGIYEAIYHGIPMVGIPLFADQHDNIAHMKAKGAALSVDIRTMSSRDLLNALKSVINDPIYKENIMKLSRIHHDQPVKPLDRAVFWIEFVMRHKGAKHLRVAAHNLTWIQYHSLDVIAFLLACVATMIFMITKCCLFCFRKLAKTGKKKKRD
B2: UGT1A4 (Homo sapiens) (protein)
chain: GKVLVVPTDGSPWLSMREALRELHARGHQAVVLTPEVNMHIKEEKFFTLTAYAVPWTQKEFDRVTLGYTQGFFETEHLLKRYSRSMAIMNNVSLALHRCCVELLHNEALIRHLNATSFDVVLTDPVNLCGAVLAKYLSIPAVFFWRYIPCDLDFKGTQCPNPSSYIPKLLTTNSDHMTFLQRVKNMLYPLALSYICHTFSAPYASLASELFQREVSVVDLVSYASVWLFRGDFVMDYPRPIMPNMVFIGGINCANGKPLSQEFEAYINASGEHGIVVFSLGSMVSEIPEKKAMAIADALGKIPQTVLWRYTGTRPSNLANNTILVKWLPQNDLLGHPMTRAFITHAGSHGVYESICNGVPMVMMPLFGDQMDNAKRMETKGAGVTLNVLEMTSEDLENALKAVINDKSYKENIMRLSSLHKDRPVEPLDLAVFWVEFVMRHKGAPHLRPAAHDLTWYQYHSLDVIGFLLAVVLTVAFITFKCCAYGYRKCLGKKGRVKKAHKSKTH

Experiments:
MEC1 cells [1] = test: MTS cell viability assay, MEC1 cells (control or overexpressing UGT2B17); assay type: cell-based, human; settings: for IC50: Homo sapiens, 72 h; for Fold over control: MEC1, IC50 2B17 / CTRL
Experimental: (§1) Cells were plated at 1 × 10^4 cells/well (MEC1) or at 5 × 10^4 cells/well (JVM2) in 96-well U-bottom tissue culture plates (BD Bioscience, Mississauga, ON, Canada). Drugs were added at time of plating at concentrations ranging from 1 nM to 100 µM (7–9 concentrations per drug), depending on the drug and based on cell viability. MTS cell viability assays (Aqueous One assay, Promega, Madison, WI, USA) were conducted 72 h after treatment initiation according to the manufacturer’s instructions. […] Control cells were treated with corresponding vehicle concentration. […] IC50 were calculated by fitting variable slope non-linear curves to normalised response data from drug treatments using GraphPad Prism v5 (GraphPad Software Inc., La Jolla, CA, USA). Assays were replicated at least three times in triplicates.

human liver microsomes [2] = test: Glucuronidation assay with human liver microsomes; settings: for Glucuronide (G) products formed: pooled human liver microsomes, MS
Experimental: (§2) Electrospray ionisation was performed in the positive ion mode.

JVM2 cells [3] = test: MTS cell viability assay, JVM2 cells (control or overexpressing UGT2B17); assay type: cell-based, human; settings: for IC50: Homo sapiens, JVM-2, 72 h; for Fold over control: JVM2, IC50 2B17 / CTRL
Experimental: as §1

[4] = system: individual human UGT isoforms; test: Screening of tissues and individual recombinant UGT1A (n = 8) and UGT2B (n = 6) enzymes by quantitative MS; settings: liver, kidney, intestine and recombinant UGTs
Experimental: as §2

UGT2B17 expression = test: UGT2B17 mRNA by RT-qPCR in drug-treated cell models; assay type: cell-based, human; settings: MEC1, JVM2 and EHEB cells, drug treatment; P < 0.01
JVM2 cells [5] = settings: JVM2, Annexin V/PI, 72 h
Experimental: (§3) Cells plated in 96-well plates at 2 × 10^4 cells/well (MEC1) or 3 × 10^4 cells/well (JVM2) were exposed to varying drug concentrations as above for 72 h. Cells were washed, labelled for 12 min with Annexin V (1:200) and PI (2 µg/ml) in Annexin V binding buffer, then immediately analysed by flow cytometry on a FACSCelesta equipped with a high throughput sampler (BD Bioscience). Annexin V labelling assays were replicated at least twice in duplicates.
(§4) MEC1 (a, c, e) and JVM2 (b, d, f) cells expressing low or high UGT2B17 levels were exposed to
(§5) increasing drug concentrations. Cells were stained with Annexin V (AnV) and propidium iodide (PI) 72
(§6) hours after treatment initiation. The AV-/PI- cells constituted the viable cell population.

MEC1 cells [6] = settings: MEC1, Annexin V/PI, 72 h
Experimental: as §3, §4, §5, §6

[7] = system: fludarabine glucuronidation; test: Fludarabine glucuronidation in drug-treated cell models; assay type: cell-based, human
Experimental: as §2

[8] = Glucuronidation assay with human liver microsomes; settings: human, human liver microsomes, pH 7.5
Experimental: as §2

UGT1A4 = target: T1, UGT1A4 (Homo sapiens, UniProt P22310); test: Glucuronidation assay with UGT1A4 supersomes; settings: for Ki: UGT1A4 inhibitory constant Ki, UGT1A4, inhibitor hecogenin
T1 sequence (P22310 29-534): B2 chain
Experimental: In the absence of commercially available UGT2B11 supersomes, microsomal proteins derived from HEK293 expressing the recombinant UGT2B11 enzyme were used. […] Samples were then stopped by adding 100 µL cold methanol, centrifuged at 16,000×g for 10 min and supernatants analysed by mass spectrometry. The following negative controls were included for each analysis: reaction assays without substrate, without the microsomal fraction and without substrate and microsomal fraction.

human liver microsomes [9] = target: T2, human liver microsomes (Homo sapiens, UniProt P22310); test: Glucuronidation assay with human liver microsomes; settings: UGT1A4 inhibitory constant Ki, Liver, inhibitor hecogenin
T2 sequence (P22310 29-534): B2 chain
Experimental: as §2

[10] = substrate: Nc1nc(F)nc2c1ncn2[C@@H]1O[C@H](CO)[C@@H](O)[C@@H]1O; test: cells, lysate or membranes named; settings: predominant drug-G, pH 7.5, 37.0 °C
[11] = MEC1 cells overexpressing UGT2B17, MTS, read-out: 2B17 IC50
[12] = MEC1 control cells, MTS, read-out: CTRL IC50
[13] = JVM2 cells overexpressing UGT2B17, MTS, read-out: 2B17 IC50
[14] = JVM2 control cells, MTS, read-out: CTRL IC50

Row | Molecule | IC50 (MEC1 cells [1]; [11]) | IC50 (MEC1 cells [1]; [12]) | Fold over control (MEC1 cells [1]) | Glucuronide (G) products formed (human liver microsomes [2]) | IC50 (JVM2 cells [3]; [13]) | IC50 (JVM2 cells [3]; [14]) | Fold over control (JVM2 cells [3]) | further results
1 | Cn1c(CCCC(=O)O)nc2cc(N(CCCl)CCCl)ccc21 [Bendamustine, bendamustine] | 76 µM | 60.1 µM | 1.27 | at least one G product | 62.8 µM | 54.2 µM | 1.16 | 
2 | O=C(O)CCCc1ccc(N(CCCl)CCCl)cc1 [Chlorambucil, chlorambucil] | 12.3 µM | 7.99 µM | 1.55 | at least one G product | 8.64 µM | 10.4 µM | 0.83 | UGT enzyme(s) involved in glucuronidation of the drug [4]: UGT2B17 plays a role in the inactivation
3 | Nc1nc(F)nc2c1ncn2[C@@H]1O[C@H](CO)[C@@H](O)[C@@H]1O [Fludarabine, fludarabine] | 58.8 µM | 29.3 µM | 2.01 | two glucuronides | 15.1 µM | 9.08 µM | 1.66 | Induction of UGT2B17 expression (UGT2B17 expression): significantly induced; Concentration at which cytotoxic (JVM2 cells [5]): > 5 µM; Cytotoxicity at clinically relevant concentrations (JVM2 cells [5]): no cytotoxicity; Concentration at which cytotoxicity was observed (MEC1 cells [6]): > 40 µM; Cytotoxicity at clinically relevant concentrations (MEC1 cells [6]): no cytotoxicity; Fludarabine glucuronidation following drug treatment [7]: increased; Velocity Vmax (human liver microsomes [2]; Liver, predominant drug-G, velocity at highest substrate concentration): 0.12 pmol/min/mg protein; Km at 6 h [8]: 878 µM; UGT enzyme(s) involved in glucuronidation of the drug [4]: UGT2B17 and UGT1A4 were the main conjugating enzymes
4 | C[C@@H]1CC[C@@]2(OC1)O[C@H]1C[C@H]3[C@@H]4CC[C@H]5C[C@@H](O)CC[C@]5(C)[C@H]4CC(=O)[C@]3(C)[C@H]1[C@@H]2C [Hecogenin, hecogenin] |  |  |  |  |  |  |  | Formation of ibrutinib and idelalisib G1 and G2 abolished (UGT1A4; UGT1A4 and livers, in the presence of hecogenin): ~90%; Ki (UGT1A4; substrate ibrutinib): 2.8 µM; Ki (UGT1A4; substrate idelalisib): 0.6 µM; Ki (human liver microsomes [9]; substrate ibrutinib): 5.8 µM; Ki (human liver microsomes [9]; substrate idelalisib): 0.9 µM
5 | C=CC(=O)N1CCC[C@@H](n2nc(-c3ccc(Oc4ccccc4)cc3)c3c(N)ncnc32)C1 [Ibrutinib, ibrutinib] | 4.13 µM | 0.99 µM |  |  | 8.95 µM | 3.64 µM |  | 
6 | CC[C@H](Nc1ncnc2[nH]cnc12)c1nc2cccc(F)c2c(=O)n1-c1ccccc1 [Idelalisib, idelalisib] | 7.4 µM | 1.73 µM |  |  | 2.95 µM | 1.79 µM |  | Cytotoxicity at clinically relevant concentrations (JVM2 cells [5]): low and no cytotoxicity; Cytotoxicity at clinically relevant concentrations (MEC1 cells [6]): low and no cytotoxicity; Fludarabine glucuronidation following drug treatment [7]: increased
7 | CC1(C)CCC(CN2CCN(c3ccc(C(=O)NS(=O)(=O)c4ccc(NCC5CCOCC5)c([N+](=O)[O-])c4)c(Oc4cnc5[nH]ccc5c4)c3)CC2)=C(c2ccc(Cl)cc2)C1 [Venetoclax, venetoclax] | 4.16 µM | 2.22 µM | 1.87 | at least one G product | 2.94 µM | 4.06 µM | 0.72 | 
8 | CC#CC(=O)N1CCC[C@H]1c1nc(-c2ccc(C(=O)Nc3ccccn3)cc2)c2c(N)nccn12 [acalibrutinib, acalabrutinib] |  |  |  | at least one G product |  |  |  | 
9 | CCS(=O)(=O)N1CCN(c2ccc(Nc3ncc(C(N)=O)c(NC4CC4)n3)cc2)CC1 [cerdulatinib] |  |  |  | at least one G product |  |  |  | UGT enzyme(s) involved in glucuronidation of the drug [4]: UGT2B17 plays a role in the inactivation
10 | C[C@H](Nc1ncnc2[nH]cnc12)c1cc2cccc(Cl)c2c(=O)n1-c1ccccc1 [duvelisib] |  |  |  | at least one G product |  |  |  | 
11 | B1 |  |  |  |  |  |  |  | Km ([10]; other: UGT2B17): 949 µM; Vmax ([10]; other: UGT2B17): 0.01 pmol/min/mg protein
12 | B2 |  |  |  |  |  |  |  | Km ([10]; other: UGT1A4): 1020 µM; Vmax ([10]; other: UGT1A4): 0.05 pmol/min/mg protein
